Where two headings read alike, the source gives them in different places.
Assays:
Assay type in all cases: biochemical
Btk = target: T1, Btk (Homo sapiens, UniProt Q06187); test: Btk in vitro inhibitory activity (one of Method A TR-FRET, Method B electrophoretic mobility shift, Method C radiometric filter binding)
T1 construct: purified from insect cells as a full-length construct containing a N-terminal 6X-His tag; His6 (N); made in house; host or cells: insect cells (Method C)
In short: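 Three alternative formats were used. A radiometric filter-binding read used 8 nM full-length His-BTK with 0.2 mg/mL poly(Glu-Tyr) 4:1 (C); microfluidic separation of 1 μM FAM-peptide by 1 nM BTK gave IC50 from 12-point curves (B); TR-FRET at Km ATP, 0.5 nM Btk, gave Ki(app)-derived IC50 (A).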

TEC = target: T2, TEC (Homo sapiens, UniProt P42680); test: Inhibition of a panel of kinases (in vitro HotSpot kinase assay, 33P-ATP, 1 μM ATP); conditions: for IC50: HotSpot kinase assay, 1 μM ATP; for TEC/Btk: ratio of TEC IC50 to Btk IC50 (selectivity)
T2 sequence (P42680 1-631): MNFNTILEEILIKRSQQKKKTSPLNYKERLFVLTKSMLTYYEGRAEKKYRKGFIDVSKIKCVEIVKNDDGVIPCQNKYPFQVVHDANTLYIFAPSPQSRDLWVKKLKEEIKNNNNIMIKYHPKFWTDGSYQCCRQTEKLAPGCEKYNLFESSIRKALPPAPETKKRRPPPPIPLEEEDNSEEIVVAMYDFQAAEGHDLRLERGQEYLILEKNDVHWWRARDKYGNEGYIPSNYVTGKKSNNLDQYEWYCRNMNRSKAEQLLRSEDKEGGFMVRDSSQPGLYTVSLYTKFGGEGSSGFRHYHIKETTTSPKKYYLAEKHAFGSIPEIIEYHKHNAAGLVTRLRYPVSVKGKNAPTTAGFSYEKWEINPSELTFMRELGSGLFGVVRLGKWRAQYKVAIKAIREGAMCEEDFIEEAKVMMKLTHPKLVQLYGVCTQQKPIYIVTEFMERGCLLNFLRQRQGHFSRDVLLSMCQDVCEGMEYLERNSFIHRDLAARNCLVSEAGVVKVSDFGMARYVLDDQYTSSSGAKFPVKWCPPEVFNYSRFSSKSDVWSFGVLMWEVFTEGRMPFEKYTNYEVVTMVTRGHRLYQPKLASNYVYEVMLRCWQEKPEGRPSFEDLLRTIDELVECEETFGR
In short: (§1)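 Radiometric read-out: 33P transfer to a suitable substrate by each purified enzyme, ATP at 1 μM. Values are degree of inhibition.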

panel of kinases = target: T3, panel of kinases (Homo sapiens, UniProt P51813); test: Inhibition of a panel of kinases (in vitro HotSpot kinase assay, 33P-ATP, 1 μM ATP), other kinases; conditions: BMX wild-type, read-out: BMX-WT IC50
T3 sequence (P51813 1-675): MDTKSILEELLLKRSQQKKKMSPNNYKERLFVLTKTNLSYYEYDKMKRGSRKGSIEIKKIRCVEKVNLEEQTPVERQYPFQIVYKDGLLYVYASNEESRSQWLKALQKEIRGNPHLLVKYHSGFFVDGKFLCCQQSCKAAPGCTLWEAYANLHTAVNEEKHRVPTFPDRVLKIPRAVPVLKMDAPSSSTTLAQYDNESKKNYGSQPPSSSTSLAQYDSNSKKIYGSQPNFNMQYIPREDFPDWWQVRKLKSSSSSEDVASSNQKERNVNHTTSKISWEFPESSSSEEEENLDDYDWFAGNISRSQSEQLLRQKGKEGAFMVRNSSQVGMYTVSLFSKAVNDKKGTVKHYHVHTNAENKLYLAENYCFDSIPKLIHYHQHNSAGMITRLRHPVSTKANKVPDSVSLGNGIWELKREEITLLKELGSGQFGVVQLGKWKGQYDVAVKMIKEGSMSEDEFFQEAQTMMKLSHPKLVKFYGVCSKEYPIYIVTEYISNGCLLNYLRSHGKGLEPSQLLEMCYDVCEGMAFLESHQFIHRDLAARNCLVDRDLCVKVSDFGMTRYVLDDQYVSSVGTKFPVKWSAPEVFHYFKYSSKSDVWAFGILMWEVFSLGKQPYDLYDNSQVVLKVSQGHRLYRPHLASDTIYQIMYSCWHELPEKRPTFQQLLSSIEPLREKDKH
In short: as §1

[1] = wild-type Btk, read-out: Btk-WT IC50

T1 sequence (Q06187 whole entry): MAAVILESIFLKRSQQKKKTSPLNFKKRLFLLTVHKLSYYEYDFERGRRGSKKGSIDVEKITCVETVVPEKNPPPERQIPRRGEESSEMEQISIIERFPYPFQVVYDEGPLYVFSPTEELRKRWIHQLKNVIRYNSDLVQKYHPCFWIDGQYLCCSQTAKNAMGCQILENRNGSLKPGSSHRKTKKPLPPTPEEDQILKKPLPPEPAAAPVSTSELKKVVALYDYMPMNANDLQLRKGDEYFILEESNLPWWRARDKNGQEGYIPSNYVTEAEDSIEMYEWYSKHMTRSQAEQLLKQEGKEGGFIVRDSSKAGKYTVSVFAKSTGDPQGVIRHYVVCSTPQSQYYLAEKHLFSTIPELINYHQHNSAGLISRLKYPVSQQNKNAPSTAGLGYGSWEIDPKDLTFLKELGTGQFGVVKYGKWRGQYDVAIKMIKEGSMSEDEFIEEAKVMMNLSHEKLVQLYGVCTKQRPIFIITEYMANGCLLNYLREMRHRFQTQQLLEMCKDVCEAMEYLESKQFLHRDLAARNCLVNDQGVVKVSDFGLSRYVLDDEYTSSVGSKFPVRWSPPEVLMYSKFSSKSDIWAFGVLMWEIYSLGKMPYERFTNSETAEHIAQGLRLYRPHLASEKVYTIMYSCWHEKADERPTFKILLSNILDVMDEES

SMILES | IC50 (Btk; [1]) [nM] | IC50 (TEC) [nM] | TEC/Btk (TEC) | IC50 (panel of kinases) [nM] | IC50 (Btk; method is one of A, B or C, not stated which, read-out: IC50 values against Btk) [nM]
CN(C)C(=O)N1CC[C@H](Nc2n[nH]c3nccc(-c4ccc(CNC(=O)c5noc(C(C)(C)C)n5)c(F)c4)c23)C1 [Example 113, 5-tert-butyl-N-{[4-(3-{[(3S)-1-(dimethylcarbamoyl)pyrrolidin-3-yl]amino}-1H-pyrazolo[3,4-b]pyridin-4-yl)-2-fluorophenyl]methyl}-1,2,4-oxadiazole-3-carboxamide] | 10.4 | 1710 | 164 | 280 | –
CN(C)C(=O)N1CC[C@H](Nc2n[nH]c3nccc(-c4ccc(CNC(=O)c5ccc(C(C)(C)C)cc5)c(F)c4)c23)C1 [Example 114, (3S)-3-{[4-(4-{[(4-tert-butylphenyl)formamido]methyl}-3-fluorophenyl)-1H-pyrazolo[3,4-b]pyridin-3-yl]amino}-N,N-dimethylpyrrolidine-1-carboxamide] | 93.3 | 4100 | 44 | 2110 | –
CN(C)C(=O)N1CC[C@@H](Nc2n[nH]c3nccc(-c4ccc(CNC(=O)c5cc(C(C)(C)C)on5)c(F)c4)c23)C1 [Example 115, 5-tert-butyl-N-{[4-(3-{[(3R)-1-(dimethylcarbamoyl)pyrrolidin-3-yl]amino}-1H-pyrazolo[3,4-b]pyridin-4-yl)-2-fluorophenyl]methyl}-1,2-oxazole-3-carboxamide] | 25.7 | 6320 | 246 | 6450 | –
CN(C)C(=O)N1CCC[C@@H](Nc2n[nH]c3nccc(-c4ccc(CNC(=O)c5noc(C(C)(C)C)n5)c(F)c4)c23)C1 [Example 116, (3R)-3-{[4-(4-{[(5-tert-butyl-1,2,4-oxadiazol-3-yl) formamido]methyl}-3-fluorophenyl)-1H-pyrazolo[3,4-b]pyridin-3-yl]amino}-N,N-dimethylpiperidine-1-carboxamide] | 11 | 4470 | 406 | 3790 | –
CN(C)C(=O)N1CC[C@@H](Nc2n[nH]c3nccc(-c4ccc(C5(NC(=O)c6nc(C(C)(C)C)no6)CC5)cc4)c23)C1 [Example 117, 3-tert-butyl-N-{1-[4-(3-{[(3R)-1-(dimethylcarbamoyl)pyrrolidin-3-yl]amino}-1H-pyrazolo[3,4-b]pyridin-4-yl)phenyl]cyclopropyl}-1,2,4-oxadiazole-5-carboxamide] | 46.2 | > 10000 | >100 | 5960 | –
CN(C)C(=O)N1CC[C@@H](Nc2n[nH]c3nccc(-c4ccc(CNC(=O)c5cnn(C(C)(C)C)c5)c(F)c4)c23)C1 [Example 119, 1-tert-butyl-N-{[4-(3-{[(3R)-1-(dimethylcarbamoyl)pyrrolidin-3-yl]amino}-1H-pyrazolo[3,4-b]pyridin-4-yl)-2-fluorophenyl]methyl}-1H-pyrazole-4-carboxamide] | 49 | 8590 | 175 | 6530 | –
CN(C)C(=O)N1CC[C@@H](Nc2n[nH]c3nccc(-c4ccc(CNC(=O)c5nc(C(C)(C)C)no5)c(F)c4)c23)C1 [Example 120, 3-tert-butyl-N-{[4-(3-{[(3R)-1-(dimethylcarbmoyl)pyrrolidin-3-yl]amino}-1H-pyrazolo[3,4-b]pyridin-4-yl)-2-fluorophenyl]methyl}-1,2,4-oxadiazole-5-carboxamide] | 7.38 | 7120 | 965 | 5220 | < 10
CC(C)(C)c1nc(C(=O)NC2(c3ccc(-c4ccnc5[nH]nc(N[C@@H]6CCCNC6)c45)cc3F)CC2)no1 [Example 121, 5-tert-butyl-N-{1-[2-fluoro-4-(3-{[(3R)-piperidin-3-yl]amino}-1H-pyrazolo[3,4-b]pyridin-4-yl)phenyl]cyclopropyl}-1,2,4-oxadiazole-3-carboxamide] | 210 | > 10000 | >100 | > 10000 | –

Reference: patent publication US20180194762A1 (Pharmacyclics LLC, priority 2017, published 2018)
